In patent US10227324B2 (Shanghai Haiyan Pharmaceutical Technology Co., Ltd., priority 2014, dated 2019):

Test system: NIH3T3 cells
Test: Cytotoxicity by MTT assay, NIH3T3
Assay type: cell-based
Conditions: Mus musculus, NIH3T3, 72 h, cytotoxicity class, read-out: NIH3T3 cell (IC50/nM)

**Q.** Which IC50 does the source give for Nc1cc(C(F)(F)F)c(-c2cc(C3(S(=O)(=O)c4ccccc4)CCC3)nc(N3CCOCC3)n2)cn1 [Compound S-20] here?
**A.** 1000 to 3000 nM

**Q.** With CC(C)S(=O)(=O)C1(c2cc(-c3cnc(N)cc3C(F)(F)F)nc(N3CCOCC3)n2)CCC1 [Compound S-19] as the compound, how does the IC50 read?
**A.** 1000 to 3000 nM

**Q.** With CS(=O)(=O)C1(c2cc(-c3cnc(N)cc3C(F)(F)F)nc(N3CCOCC3)n2)CCCC1 [Compound S-10] as the compound, how does the IC50 read?
**A.** 1000 to 3000 nM

Test system: not listed separately
Test: Metabolism stability assay in liver microsomes
Assay type: in vitro ADME, mouse
Conditions: liver microsomal metabolism in mice
Method: Buffer A: 1 L solution of 100 mM potassium dihydrogen phosphate containing 1 mM EDTA (Sigma, V900157-100G) was prepared. Buffer B: 1 L solution of 100 mM dipotassium hydrogen phosphate containing 1 mM EDTA was prepared. Buffer C: 700 mL of buffer B was taken out and titrated with buffer A to pH 7.4.
2.1 10 μl of 10 mM compound to be tested and 10 μl of 10 mM ketanserin were taken out and 190 μl of pure acetonitrile was added to each of them to prepare 500 μM compound to be tested and ketanserin, respectively.
2.2 20 μl (20 mg/mL) of liver microsomes (XENOTECH, H0610) stock solution was added to 513.4 μl of buffer C on wet ice. 0.75 mg/mL liver microsomal solution was obtained.
2.3 1.5 μl of each of the above-mentioned compound to be tested and ketanserin solution was added to 498.5 μl of liver microsomal solution (0.7 5 mg/mL) respectively on wet ice. 1.5 μM mixed solution of compound to be tested and 1.5 μM mixed solution of ketanserin were obtained.
2.4 At the time points 0, 5, 15, 30, 45, and 60 min, 30 μl of the mixed solution of compound to be tested and 30 μl of the mixed solution of ketanserin were dispensed into the reaction plate on wet ice, respectively.
2.5 5 mg reduced coenzyme II (Roche, 10621706001) was weighed and dissolved in 1 mL of buffer C. 6 mM reduced coenzyme II solution was obtained. The reduced coenzyme II solution was dispensed into the reaction plate.
2.6 Imipramine was dissolved to give a 10 mM solution. 10 μl imipramine solution was added to 100 mL of blank acetonitrile to generate the internal reference.
2.7 At 0 min, 135 μL of iced acetonitrile (Merck, UN 1648) containing the internal reference was added to each well and then 15 μL of buffer C was added.
2.8 The reaction plate was placed into a 37° C. water bath incubator for 5 min. In the reaction plate, 15 μL of reduced coenzyme II solution was added to each well to initiate the reaction, and the time keeping was started. At the time points of 5, 15, 30, 45, and 60 min, 135 μL of iced acetonitrile containing the internal reference was added to each well to terminate the reaction.
2.9 The reaction plate was sealed with an aluminum film, placed on a vibration mixer and shaken at 500 rpm for 5 min. The plate was then centrifuged in a centrifuge at 3750 rp for 15 min.
2.10 The sample was diluted with pure water in accordance with the ratio of 1:1 and detected by LC/MS.
Half-life: 0.693/K (the slope by plotting based on the incubation time and logarithm of the concentration value)
Clearance ratio: (0.693/half-life)*(1/protein concentration (0.5 mg/mL))*(proportional factor)
Wherein, the K value and the proportional factor were calculated by those skilled in the art according to the methods described in the prior art and contained in the instructions of the liver microsome product.

**Q.** With Nc1cc(C(F)(F)F)c(-c2cc(C3(S(=O)(=O)c4ccccc4)CCC3)nc(N3CCOCC3)n2)cn1 [Compound S-20] as the compound, how does the “Clearance ratio (mL/min/kg) mouse” value read?
**A.** 5641.44 mL/min/kg

**Q.** For CS(=O)(=O)C1(c2cc(-c3cnc(N)nc3C(F)(F)F)nc(N3CCOCC3)n2)CC1 [Compound S-46], which “Clearance ratio (mL/min/kg) mouse” value is on record?
**A.** 100.1 mL/min/kg

**Q.** With CC(C)(c1cc(-c2cnc(N)cc2Cl)nc(N2CCOCC2)n1)S(C)(=O)=O [Compound S-38, 4-chloro-5-(6-(2-(methylsulfonyl)prop-2-yl)-2-morpholinopyrimidin-4-yl)pyridin-2-amine] as the compound, how does the “Clearance ratio (mL/min/kg) mouse” value read?
**A.** 103.77 mL/min/kg

**Q.** Which “Clearance ratio (mL/min/kg) mouse” value does the source give for CS(=O)(=O)C1(c2cc(-c3cnc(N)cc3F)nc(N3CCOCC3)n2)CC1 [Compound S-82] here?
**A.** 39.75 mL/min/kg

**Q.** For CC(C)(c1cc(-c2cnc(N)nc2C(F)(F)F)nc(N2CCOCC2)n1)S(C)(=O)=O [Compound S-45], which “Clearance ratio (mL/min/kg) mouse” value is on record?
**A.** 89.54 mL/min/kg

**Q.** Which “Clearance ratio (mL/min/kg) mouse” value does the source give for CS(=O)(=O)C1(c2cc(-c3cnc(N)cc3C(F)(F)F)nc(N3CCOCC3)n2)CCC1 [Compound S-4] here?
**A.** 442.63 mL/min/kg
